# Test results published in ChEMBL document CHEMBL2029245, “Binding evaluation of fragment-based scaffolds for probing allosteric enzymes” (J Med Chem, 2012).
# Target: T1, Glycogen phosphorylase, muscle form (Oryctolagus cuniculus, UniProt P00489)
# T1 sequence (P00489 whole entry): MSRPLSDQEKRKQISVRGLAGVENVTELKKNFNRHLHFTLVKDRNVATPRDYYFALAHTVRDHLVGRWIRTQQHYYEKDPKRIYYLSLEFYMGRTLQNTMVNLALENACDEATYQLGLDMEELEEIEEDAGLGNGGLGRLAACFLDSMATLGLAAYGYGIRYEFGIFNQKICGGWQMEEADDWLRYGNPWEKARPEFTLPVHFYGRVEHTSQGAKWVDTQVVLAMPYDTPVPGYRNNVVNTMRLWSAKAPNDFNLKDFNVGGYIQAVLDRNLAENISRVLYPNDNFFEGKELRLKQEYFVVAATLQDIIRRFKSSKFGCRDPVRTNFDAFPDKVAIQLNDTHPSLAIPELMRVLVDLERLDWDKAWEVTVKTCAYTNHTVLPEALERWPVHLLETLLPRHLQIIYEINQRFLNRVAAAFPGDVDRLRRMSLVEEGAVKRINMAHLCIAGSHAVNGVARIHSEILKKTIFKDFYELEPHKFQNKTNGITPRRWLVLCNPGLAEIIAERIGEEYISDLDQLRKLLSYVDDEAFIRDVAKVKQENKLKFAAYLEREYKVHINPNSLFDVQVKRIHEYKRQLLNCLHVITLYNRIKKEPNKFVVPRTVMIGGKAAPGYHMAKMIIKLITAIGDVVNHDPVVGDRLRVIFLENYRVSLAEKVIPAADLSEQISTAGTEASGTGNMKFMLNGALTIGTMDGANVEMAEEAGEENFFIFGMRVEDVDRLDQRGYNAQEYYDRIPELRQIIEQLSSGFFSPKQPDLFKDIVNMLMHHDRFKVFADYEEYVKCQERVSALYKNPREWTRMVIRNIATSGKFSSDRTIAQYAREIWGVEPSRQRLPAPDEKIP
# Test: Binding affinity to rabbit muscular GPa by NMR binding assay
row,IC50,SMILES
1,2.7 µM,Cc1cc(F)c(Sc2nccn2C)cc1C(=O)Nc1cccc(N)c1
2,9.9 µM,Cc1cc(F)c(Sc2nccn2C)cc1C(=O)Nc1cccc(C#N)c1
3,96.9 µM,O=C(CN1CCN(c2ccccc2)CC1)Nc1nccs1

# Target: T1, Glycogen phosphorylase, muscle form
# Description: Binding affinity to rabbit muscular GPb by NMR binding assay
row,IC50,SMILES
1,0.9 µM,Nc1ccccc1C(=O)Nc1ccccc1Oc1ccc(C(=O)O)c(C(=O)O)c1
2,0.024 µM,O=C(O)c1ccccc1-n1cc(C(=O)O)c(=O)c2cc(Cc3c(F)cc(F)cc3Cl)c(Cl)cc21

# The remaining lines, values behind:
row,SMILES,IC50
1,Cc1cn([C@@H]2O[C@H](CO)[C@@H](O)[C@H](O)[C@H]2O)c(=O)[nH]c1=O,6.6 µM
2,O=C(NC(=O)c1cc2ccccc2[nH]1)N[C@@H]1O[C@H](CO)[C@@H](O)[C@H](O)[C@H]1O,4 µM
3,O=C1NCC(O)NC12O[C@H](CO)[C@@H](O)[C@H](O)[C@H]2O (stereo not given in full),59.8 µM

# Target: T2, Glycogen phosphorylase, liver form (Homo sapiens, UniProt P06737)
# T2 sequence (P06737 whole entry): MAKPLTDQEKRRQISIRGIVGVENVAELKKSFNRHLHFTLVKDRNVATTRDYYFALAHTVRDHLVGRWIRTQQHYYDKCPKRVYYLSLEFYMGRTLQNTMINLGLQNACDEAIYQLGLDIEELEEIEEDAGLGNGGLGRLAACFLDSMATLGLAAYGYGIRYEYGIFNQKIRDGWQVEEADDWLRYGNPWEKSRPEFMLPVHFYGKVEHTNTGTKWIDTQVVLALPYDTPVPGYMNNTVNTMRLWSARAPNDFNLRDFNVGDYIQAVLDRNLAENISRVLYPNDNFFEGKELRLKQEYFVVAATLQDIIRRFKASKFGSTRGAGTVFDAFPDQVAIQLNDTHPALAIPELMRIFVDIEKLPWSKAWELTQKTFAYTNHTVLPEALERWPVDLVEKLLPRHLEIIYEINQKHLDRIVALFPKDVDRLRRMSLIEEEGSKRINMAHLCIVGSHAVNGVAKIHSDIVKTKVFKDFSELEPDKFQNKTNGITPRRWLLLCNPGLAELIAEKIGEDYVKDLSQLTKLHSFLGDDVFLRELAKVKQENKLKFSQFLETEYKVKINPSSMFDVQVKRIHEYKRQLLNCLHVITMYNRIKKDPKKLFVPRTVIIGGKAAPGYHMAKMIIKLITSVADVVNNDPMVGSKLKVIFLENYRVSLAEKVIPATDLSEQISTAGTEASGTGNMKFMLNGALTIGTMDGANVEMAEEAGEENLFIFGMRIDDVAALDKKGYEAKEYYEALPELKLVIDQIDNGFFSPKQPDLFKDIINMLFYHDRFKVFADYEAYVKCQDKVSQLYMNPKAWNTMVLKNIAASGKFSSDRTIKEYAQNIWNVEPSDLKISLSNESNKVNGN
# Test: Binding affinity to human liver GPa by NMR binding assay
row,IC50,SMILES
1,1.3 µM,Nc1ccccc1C(=O)Nc1ccccc1Oc1ccc(C(=O)O)c(C(=O)O)c1
2,12.5 µM,COCCNC(=O)c1c[nH]c2ccc(Cl)cc12
